# Laboratory results published in ChEMBL document CHEMBL2413072, “Synthesis and in vitro anticancer studies of novel C-2 arylidene congeners of lantadenes” (2013).
# Assays:
# Format in all cases: functional
# DU-145 [1] = assay: Growth inhibition of human DU145 cells assessed as cell growth at 10^-7 M by sulforhodamine B assay; conditions: read-out: Activity
# HOP-92 [2] = assay: Growth inhibition of human HOP92 cells assessed as cell growth at 10^-4 M by sulforhodamine B assay; conditions: read-out: Activity
# KM12 [3] = assay: Growth inhibition of human KM12 cells assessed as cell growth at 10^-6 M by sulforhodamine B assay; conditions: read-out: Activity
# NCI-H460 = assay: Growth inhibition of human NCI-H460 cells assessed as cell growth at 10^-8 M by sulforhodamine B assay; conditions: read-out: Activity
# NCI-H322M = assay: Growth inhibition of human NCI-H322M cells assessed as cell growth at 10^-6 M by sulforhodamine B assay; conditions: read-out: Activity
# UACC-257 [4] = assay: Growth inhibition of human UACC257 cells assessed as cell growth at 10^-8 M by sulforhodamine B assay; conditions: read-out: Activity
# OVCAR-4 = assay: Growth inhibition of human OVCAR4 cells by sulforhodamine B assay
# HOP-92 [5] = assay: Growth inhibition of human HOP92 cells by sulforhodamine B assay
# 786-0 = assay: Growth inhibition of human 786-0 cells assessed as cell growth at 10^-4 M by sulforhodamine B assay; conditions: read-out: Activity
# SN12C = assay: Growth inhibition of human SN12C cells assessed as cell growth at 10^-8 M by sulforhodamine B assay; conditions: read-out: Activity
# MOLT-4 [6] = assay: Growth inhibition of human MOLT4 cells assessed as cell growth at 10^-8 M by sulforhodamine B assay; conditions: read-out: Activity
# SW-620 = assay: Growth inhibition of human SW620 cells assessed as cell growth at 10^-7 M by sulforhodamine B assay; conditions: read-out: Activity
# MDA-MB-435 = assay: Growth inhibition of human MDA-MB-435 cells assessed as cell growth at 10^-4 M by sulforhodamine B assay; conditions: read-out: Activity
# M14 = assay: Growth inhibition of human M14 cells assessed as cell growth at 10^-7 M by sulforhodamine B assay; conditions: read-out: Activity
# DU-145 [7] = assay: Growth inhibition of human DU145 cells assessed as cell growth at 10^-8 M by sulforhodamine B assay; conditions: read-out: Activity
# HL-60(TB) = assay: Growth inhibition of human HL-60(TB) cells assessed as cell growth at 10^-7 M by sulforhodamine B assay; conditions: read-out: Activity
# CCRF-CEM = assay: Growth inhibition of human CCRF-CEM cells assessed as cell growth at 10^-7 M by sulforhodamine B assay; conditions: read-out: Activity
# A498 = assay: Growth inhibition of human A498 cells assessed as cell growth at 10^-6 M by sulforhodamine B assay; conditions: read-out: Activity
# [8] = Growth inhibition of human HCC2998 cells assessed as cell growth at 10^-8 M by sulforhodamine B assay; conditions: HCC 2998, read-out: Activity
# SK-MEL-5 = assay: Growth inhibition of human SK-MEL-5 cells by sulforhodamine B assay
# ACHN = assay: Growth inhibition of human ACHN cells assessed as cell growth at 10^-6 M by sulforhodamine B assay; conditions: read-out: Activity
# KM12 [9] = assay: Growth inhibition of human KM12 cells assessed as cell growth at 10^-4 M by sulforhodamine B assay; conditions: read-out: Activity
# UACC-257 [10] = assay: Growth inhibition of human UACC257 cells by sulforhodamine B assay
# MOLT-4 [11] = assay: Growth inhibition of human MOLT4 cells assessed as cell growth at 10^-7 M by sulforhodamine B assay; conditions: read-out: Activity
# [12] = read-out: LC50 (the source's name)
# [13] = read-out: pLC50 (the source's name) (converted)
structure (smiles),measurement,setting,value
CC1(C)C[C@@H](O)[C@]2(C(=O)O)CC[C@]3(C)C(=CC[C@@H]4[C@@]5(C)C/C(=C\C=C\c6ccccc6)C(=O)C(C)(C)[C@@H]5CC[C@]43C)[C@@H]2C1,growth at 0.1 µM,DU-145 [1],104%
same,growth at 100 µM,HOP-92 [2],-76%
same,growth at 1 µM,KM12 [3],92%
same,growth at 0.01 µM,NCI-H460,102%
same,growth at 1 µM,NCI-H322M,94%
same,growth at 0.01 µM,UACC-257 [4],93%
same,GI50,OVCAR-4; read-out: GI50,3.85 µM
same,CC50,OVCAR-4; [12],40.2 µM
same,TGI,OVCAR-4; read-out: TGI,15.4 µM
same,GI50,OVCAR-4; read-out: pGI50 (converted),3.89 µM
same,CC50,OVCAR-4; [13],39.8 µM
same,TGI,OVCAR-4; read-out: pTGI (converted),15.5 µM
same,GI50,HOP-92 [5]; read-out: GI50,1.92 µM
same,CC50,HOP-92 [5]; [12],36.6 µM
same,TGI,HOP-92 [5]; read-out: TGI,6.67 µM
same,GI50,HOP-92 [5]; read-out: pGI50 (converted),1.91 µM
same,CC50,HOP-92 [5]; [13],36.3 µM
same,TGI,HOP-92 [5]; read-out: pTGI (converted),6.61 µM
same,growth at 100 µM,786-0,-85%
same,growth at 0.01 µM,SN12C,98%
same,growth at 0.01 µM,MOLT-4 [6],104%
same,growth at 0.1 µM,SW-620,97%
same,growth at 100 µM,MDA-MB-435,-43%
same,growth at 0.1 µM,M14,95%
same,growth at 0.01 µM,DU-145 [7],106%
same,growth at 0.1 µM,HL-60(TB),108%
same,growth at 0.1 µM,CCRF-CEM,102%
same,growth at 1 µM,A498,80%
same,growth at 0.01 µM,[8],92%
same,GI50,SK-MEL-5; read-out: GI50,1.76 µM
same,CC50,SK-MEL-5; [12],6.11 µM
same,TGI,SK-MEL-5; read-out: TGI,3.28 µM
same,GI50,SK-MEL-5; read-out: pGI50 (converted),1.74 µM
same,CC50,SK-MEL-5; [13],6.17 µM
same,TGI,SK-MEL-5; read-out: pTGI (converted),3.31 µM
same,growth at 1 µM,ACHN,97%
same,growth at 100 µM,KM12 [9],-76%
same,GI50,UACC-257 [10]; read-out: GI50,2.62 µM
same,CC50,UACC-257 [10]; [12],35.1 µM
same,TGI,UACC-257 [10]; read-out: TGI,9.01 µM
same,GI50,UACC-257 [10]; read-out: pGI50 (converted),2.63 µM
same,CC50,UACC-257 [10]; [13],35.5 µM
same,TGI,UACC-257 [10]; read-out: pTGI (converted),8.91 µM
same,growth at 0.1 µM,MOLT-4 [11],97%
